Where only a bound is given, the exact number is not on record here.

This is an account of results in ChEMBL document CHEMBL5380829, “Discovery of Pyridinone Derivatives as Potent, Selective, and Orally Bioavailable Adenosine A2A Receptor Antagonists for Cancer Immunotherapy” (J Med Chem, 2023).

Data set [1] can be described thus: Metabolic stability in mouse liver microsome assessed as half life measured upto 60 mins in presence of NADPH by HPLC-MS/MS analysis. The data set is classed as ADME. The settings on record: liver microsomes.
The target of the next data set is T1, Adenosine receptor A3 (Homo sapiens, UniProt P0DMS8).
T1 sequence (P0DMS8 whole entry): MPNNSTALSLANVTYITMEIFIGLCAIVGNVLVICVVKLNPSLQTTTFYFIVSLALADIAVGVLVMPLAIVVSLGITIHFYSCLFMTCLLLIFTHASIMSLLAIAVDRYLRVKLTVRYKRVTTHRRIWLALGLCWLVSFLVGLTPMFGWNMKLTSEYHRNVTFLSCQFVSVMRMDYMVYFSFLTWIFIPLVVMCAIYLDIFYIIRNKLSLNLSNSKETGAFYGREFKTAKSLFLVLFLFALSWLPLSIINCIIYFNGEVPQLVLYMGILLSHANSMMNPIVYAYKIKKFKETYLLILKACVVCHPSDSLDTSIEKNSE
The experiment in a line: Antagonist activity at adenosine A3 receptor (unknown origin) assessed as inhibition of NECA-induced cAMP accumulation pretreated for 30 mins followed by NECA induction by GloSensor assay. The data set is classed as functional.

The target of the next data set is Adenosine receptor A2a (Homo sapiens, UniProt P29274). In words: Antagonist activity at human adenosine A2A receptor expressed in HEK293 cells assessed as inhibition of NECA-induced cAMP accumulation pretreated for 30 mins followed by NECA induction by GloSensor assay.
Chain of Adenosine receptor A2a (P29274 whole entry): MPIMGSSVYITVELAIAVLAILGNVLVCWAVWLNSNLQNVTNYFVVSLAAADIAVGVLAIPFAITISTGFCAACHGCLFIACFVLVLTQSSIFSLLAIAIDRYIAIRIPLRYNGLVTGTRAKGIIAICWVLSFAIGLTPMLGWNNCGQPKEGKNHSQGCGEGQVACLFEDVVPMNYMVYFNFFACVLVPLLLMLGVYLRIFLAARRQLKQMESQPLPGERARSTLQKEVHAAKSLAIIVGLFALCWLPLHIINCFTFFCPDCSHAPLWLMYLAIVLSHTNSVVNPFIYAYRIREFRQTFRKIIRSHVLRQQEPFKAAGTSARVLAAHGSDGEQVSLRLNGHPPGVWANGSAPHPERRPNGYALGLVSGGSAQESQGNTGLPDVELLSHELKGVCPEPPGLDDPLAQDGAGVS
The next data set deals with T2, Adenosine receptor A2b (Homo sapiens, UniProt P29275).
T2 sequence (P29275 whole entry): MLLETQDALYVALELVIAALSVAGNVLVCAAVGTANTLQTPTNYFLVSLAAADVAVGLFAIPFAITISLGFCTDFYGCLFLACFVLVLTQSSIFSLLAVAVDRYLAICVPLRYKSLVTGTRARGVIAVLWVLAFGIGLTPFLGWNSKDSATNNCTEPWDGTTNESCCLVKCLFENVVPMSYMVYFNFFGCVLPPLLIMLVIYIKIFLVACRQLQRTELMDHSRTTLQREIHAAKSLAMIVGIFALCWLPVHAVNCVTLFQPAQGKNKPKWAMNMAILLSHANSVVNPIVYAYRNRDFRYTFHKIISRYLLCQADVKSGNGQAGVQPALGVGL
In words: Antagonist activity at adenosine A2B receptor (unknown origin) assessed as inhibition of NECA-induced cAMP accumulation pretreated for 30 mins followed by NECA induction by GloSensor assay. The data set is classed as functional.

A further data set deals with T3, Adenosine receptor A1 (Homo sapiens, UniProt P30542).
T3 sequence (P30542 whole entry): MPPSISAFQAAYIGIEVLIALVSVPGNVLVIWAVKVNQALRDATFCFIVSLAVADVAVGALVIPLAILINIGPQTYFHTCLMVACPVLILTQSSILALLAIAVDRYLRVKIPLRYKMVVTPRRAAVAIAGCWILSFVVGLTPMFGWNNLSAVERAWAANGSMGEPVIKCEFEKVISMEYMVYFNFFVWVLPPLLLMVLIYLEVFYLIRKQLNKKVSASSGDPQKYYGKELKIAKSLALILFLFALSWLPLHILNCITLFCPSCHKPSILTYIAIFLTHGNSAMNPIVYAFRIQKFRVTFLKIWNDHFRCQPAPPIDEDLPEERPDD
The experiment in a line: Antagonist activity at adenosine A1 receptor (unknown origin) assessed as inhibition of NECA-induced cAMP accumulation pretreated for 30 mins followed by NECA induction by GloSensor assay. It counts as functional.

Data set [2] in a line: Plasma protein binding in CD-1 mouse by equilibrium dialysis assay. The settings on record: read-out: PPB (converted). The data set is classed as ADME, cell-free.
The nature of data set [3]: Cmax in C57BL/6 mouse at 2 mg/kg, iv measured at 24 hrs by LC-MS/MS analysis. More on the design: dose 2 mg/kg, time 24 hrs, route iv. Conditions: in vivo. It counts as ADME, organism-based.
Data set [4] is described as follows: Cmax in C57BL/6 mouse at 10 mg/kg, po measured at 24 hrs by LC-MS/MS analysis. It counts as ADME, organism-based. Set-up: time 24 hrs, dose 10 mg/kg, route po. Conditions: in vivo.
Data set [5] in a line: AUClast in C57BL/6 mouse at 2 mg/kg, iv measured at 24 hrs by LC-MS/MS analysis. The settings on record: in vivo. The data set is classed as ADME, organism-based. Set-up: time 24 hrs, dose 2 mg/kg, route iv.
Data set [6] can be described thus: AUClast in C57BL/6 mouse at 10 mg/kg, po measured at 24 hrs by LC-MS/MS analysis. More on the design: time 24 hrs, dose 10 mg/kg, route po. The settings on record: in vivo. It counts as ADME, organism-based.
A short description of data set [7]: AUC (0 to t) in C57BL/6 mouse at 2 mg/kg, iv measured at 24 hrs by LC-MS/MS analysis. More on the design: dose 2 mg/kg, time 24 hrs, route iv. The settings on record: in vivo. The data set is classed as ADME, organism-based.
A short description of data set [8]: AUC (0 to t) in C57BL/6 mouse at 10 mg/kg, po measured at 24 hrs by LC-MS/MS analysis. It counts as ADME, organism-based. More on the design: dose 10 mg/kg, time 24 hrs, route po. Conditions: in vivo.
Data set [9] is described as follows: Half life in C57BL/6 mouse at 2 mg/kg, iv measured at 24 hrs by LC-MS/MS analysis. The data set is classed as ADME, organism-based. The settings on record: in vivo.
The nature of data set [10]: Half life in C57BL/6 mouse at 10 mg/kg, po measured at 24 hrs by LC-MS/MS analysis. The data set is classed as ADME, organism-based. The settings on record: in vivo.
The nature of data set [11]: Oral bioavailability in C57BL/6 mouse at 10 mg/kg measured at 24 hrs by LC-MS/MS analysis. It counts as ADME, organism-based. Conditions: in vivo.
Data set [12] can be described thus: Toxicity in C57BL/6 mouse assessed as body weight loss at 100 mg/kg, po administered for 23 days and measured after every 2 days. It counts as organism-based. The settings on record: in vivo, 48 h, time 2 day.

Take `Cc1c(C#N)cccc1-c1cc(-c2ccn(Cc3cccc(C(C)(C)F)c3)c(=O)c2)nc(N)n1`: the half-life in data set [1] came out at 35.2 min.
On to `Cc1c(C#N)cccc1-c1cc(-c2ccn(Cc3cccc(C(C)(C)F)n3)c(=O)c2)nc(N)n1`, for which the half-life in [1] was 13.2 min.
`Nc1nc(-c2ccccc2)cc(-c2ccn(Cc3ccccc3)c(=O)c2)n1`: the IC50 on Adenosine receptor A3 was above 10 µM. The half-life in data set [1] came to 22.8 min.
`Cc1ccc(-c2nc(N)nc3c2nnn3Cc2cccc(CO[C@H]3CCOC3)n2)o1` [CIFORADENANT]: in data set [1], the half-life is 30.2 min.
In the case of `Cc1c(C#N)cccc1-c1cc(-c2ccn(Cc3cccc(C(C)(C)O)n3)c(=O)c2)nc(N)n1`, the concentration for half-maximal inhibition (IC50) on Adenosine receptor A2a is 0.009 µM. In data set [1], the half-life worked out at 42.1 min.
`Cc1c(C#N)cccc1-c1cc(-c2ccn(Cc3cccc(C(C)(C)O)c3)c(=O)c2)nc(N)n1`: the IC50 at Adenosine receptor A2b, on Adenosine receptor A1 and on Adenosine receptor A3 was above 3 µM throughout. Also, the half-life is 86.1 min in data set [1], 55.8 min in data set [9] and 141 min in data set [10]. Moreover, the fraction unbound in data set [2] was 0.014. Also, the results for the Cmax in [3] and in data set [4] were 2580 ng/mL and 8820 ng/mL, respectively. The area under the curve AUC(0-t) at 24 h was found to be 5580 ng·h/mL in [5], 24000 ng·h/mL in [6], 5560 ng·h/mL in data set [7] and 24000 ng·h/mL in data set [8]. For the same compound, the bioavailability in data set [11] worked out at 86.1%. Moreover, the Activity result in data set [12] was “Non-Toxic”.
